Measurements as given in patent publication US20240041764A1, “Sustained-Release Oral Fosamprenavir Formulation for Treatment of Reflux” (The Medical College of Wisconsin, Inc., priority 2022, published 2024).

Key:
porcine pepsin A = molecular target: T1, porcine pepsin A (Sus scrofa, UniProt P00791); assay: competitive binding assay, fluorescence polarization with pepstatin-Alexa647; conditions: 100 nM probe, 0.03 U/ul porcine pepsin A, 37.5% DMSO, 0.1 M HCl pH 1
T1 construct: purchased Worthington Biochemical Corporation
Protocol: To examine whether HIV protease inhibitors bound and inhibited pepsin, we developed assays based on fluorescence polarization which measures size-dependent molecular rotation thereby permitting detection of degradation, association and dissociation events^80. A competitive binding assay was designed employing pepstatin, an inhibitor of sub-nanomolar affinity^81. Pepstatin-Alexa647 was synthesized by dissolving 1 mg pepstatin A (Sigma-Aldrich) in a 50:50 mixture of dimethylformamide (DMF) and dimethylsulfoxide (DMS) followed by the addition of N,N,N′,N′-Tetramethyl-O—(N-succinimidyl)uronium tetrafluoroborate (0.6 mg) and trimethylamine (10 μL) DMF. The mixture was stirred for 1 hour, after which 1 mg Alexa Fluor 647 Cadaverine, Disodium Salt (ThermoFisher Scientific) was added. After 2 hours, the solvents were evaporated under high vacuum (35° C.) and residue partially dissolved in 10% methanol and transferred onto a C18 cartridge (Waters Corporation, Milford, MA). Increasing percentages of methanol were used for the elution. Pepstatin-Alexa647 eluted at 45% methanol. An enzymatic inhibition assay was designed using casein substrate.^82 Bovine alpha casein (Sigma-Aldrich, St. Louis, MO) was labeled with Alexa Fluor 647 Carboxylic Acid, Succinimidyl Ester (ThermoFisher Scientific, Waltham, MA) as described.^82 Briefly, the two were combined at 2.5 ug/mg label to protein ratio in 0.1M sodium bicarbonate for 15 minutes and labeled casein was separated from unbound label in a Sephadex G-25 (Sigma-Aldrich) column comprised of 90×5 mm packed beads in a glass Pasteur pipette, eluted with dPBS pH7.4 (ThermoFisher Scientific). The fast-moving band (casein-bound fluorophore) was collected in ˜0.4 ml volume. […]
(§1) Assays were optimized using ranges of 0.3-1000 μM unlabeled pepstatin, 100-500 nM pepstatin-Alexa647 or casein-Alexa647 probe, 0.003-3 U/μl porcine pepsin (Worthington Biochemical Corporation, Lakewood, NJ), and 5-37.5% DMSO (HIV protease inhibitor diluent) in 0.1 M HCl, pH 1 with 0.01% v/v Tween-20 in 20 μl volumes in 384-well black optical plates (Nunc, Roskilde, DK) and read on a BioTek Cytation 5 (BioTek Instruments, Winooski, VT) with far red FP filter cube (excitation/emission 620/680 nm). […] Assays were performed twice with triplicate reactions read for five minutes and mean mP plotted against probe concentration (binding assay) or read at <2 minutes intervals over 30 minutes with mean mP of plotted over time (activity assay). Half maximal inhibitory concentration (IC50) of inhibitors were calculated from kinetic traces analyzed using an online tool (https://icekat.herokuapp.com/icekat)^83. mP was normalized to blank (absent inhibitor) to derive percent bound or activity.

porcine pepsin = molecular target: T2, porcine pepsin (Sus scrofa, UniProt P00791); assay: peptic activity assay, fluorescence polarization with casein-Alexa647; type: biochemical; conditions: for IC50 for pepsin: in vitro binding and inhibition assays, IC50 from kinetic traces
T2 construct: purchased Worthington Biochemical Corporation
Protocol: To examine whether HIV protease inhibitors bound and inhibited pepsin, we developed assays based on fluorescence polarization which measures size-dependent molecular rotation thereby permitting detection of degradation, association and dissociation events^80. A competitive binding assay was designed employing pepstatin, an inhibitor of sub-nanomolar affinity^81. Pepstatin-Alexa647 was synthesized by dissolving 1 mg pepstatin A (Sigma-Aldrich) in a 50:50 mixture of dimethylformamide (DMF) and dimethylsulfoxide (DMS) followed by the addition of N,N,N′,N′-Tetramethyl-O—(N-succinimidyl)uronium tetrafluoroborate (0.6 mg) and trimethylamine (10 μL) DMF. The mixture was stirred for 1 hour, after which 1 mg Alexa Fluor 647 Cadaverine, Disodium Salt (ThermoFisher Scientific) was added. After 2 hours, the solvents were evaporated under high vacuum (35° C.) and residue partially dissolved in 10% methanol and transferred onto a C18 cartridge (Waters Corporation, Milford, MA). Increasing percentages of methanol were used for the elution. […] An enzymatic inhibition assay was designed using casein substrate.^82 Bovine alpha casein (Sigma-Aldrich, St. Louis, MO) was labeled with Alexa Fluor 647 Carboxylic Acid, Succinimidyl Ester (ThermoFisher Scientific, Waltham, MA) as described.^82 Briefly, the two were combined at 2.5 ug/mg label to protein ratio in 0.1M sodium bicarbonate for 15 minutes and labeled casein was separated from unbound label in a Sephadex G-25 (Sigma-Aldrich) column comprised of 90×5 mm packed beads in a glass Pasteur pipette, eluted with dPBS pH7.4 (ThermoFisher Scientific). The fast-moving band (casein-bound fluorophore) was collected in ˜0.4 ml volume. Concentration of resultant probe (casein-Alexa647 in PBS-azide) was estimated via spectrophotometry using Beer's law (Implen Nanophotometer, Implen, Inc. Westlake Village, CA).
as §1, with “nm). Unlabeled pepstatin dose-response curves were used to ensure that the assays were responsive to pepsin inhibition.” for “nm).”

T2 sequence (P00791 60-385): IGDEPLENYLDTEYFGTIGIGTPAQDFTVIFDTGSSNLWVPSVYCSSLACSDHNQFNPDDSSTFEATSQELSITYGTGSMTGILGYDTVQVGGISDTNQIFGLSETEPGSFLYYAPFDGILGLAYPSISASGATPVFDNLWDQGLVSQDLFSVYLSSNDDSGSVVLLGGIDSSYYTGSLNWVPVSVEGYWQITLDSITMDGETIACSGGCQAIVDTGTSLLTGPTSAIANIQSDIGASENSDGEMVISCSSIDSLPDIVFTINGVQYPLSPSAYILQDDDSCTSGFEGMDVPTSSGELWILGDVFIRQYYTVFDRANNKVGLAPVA
T1 sequence (P00791 60-385): as above

With `CC(C)CN(C[C@@H](O)[C@H](Cc1ccccc1)NC(=O)O[C@H]1CO[C@H]2OCC[C@H]21)S(=O)(=O)c1ccc(N)cc1` [darunavir, [(3aS,4R,6aR)-2,3,3a,4,5,6a-hexahydrofuro[2,3-b]furan-4-yl]N-[(2S,3R)-4-[(4-aminophenyl)sulfonyl-(2-methylpropyl)amino]-3-hydroxy-1-phenylbutan-2-yl]carbamate] the “bound pepsin (competitive binding)” value (porcine pepsin A) was “low micromolar”, the “inhibited pepsin (peptic activity)” value (porcine pepsin; 200 nM probe, 0.01 U/μL pepsin, 5% DMSO, 0.1 M HCl pH 1) was “low micromolar” and the IC50 for pepsin (porcine pepsin) was “low micromolar range”. The IC50 for pepsin (porcine pepsin; listed as Darunavir) was “lowest IC50”.
